# Measurements as given in US7951232B2, “Surface coating compositions and methods” (Elevance Renewable Sciences, Inc., priority 2006, dated 2011).
# Where two headings read alike, the source gives them in different places.
# Assays:
# Type in all cases: cell-based
# [1] = test system: Pseudomonas aeruginosa ATCC 15442; test: MIC and MBC determination in Mueller-Hinton Broth; conditions: no-growth tubes subcultured on TSA, 37±2° C., 20-24 hours
# Procedure: Efficacy of 9-decenoic acid and the methyl ester of 9-decenoic acid against Pseudomonas aeruginosa ATCC 15442, Escherichia coli 0157:H7 ATCC 43895 and Candida albicans ATCC 10231 was measured through the determination of the minimum inhibitory concentration (MIC) and minimum bacteriocidal concentration (MBC) using the procedures in the Federal Register, June 1994 and the present NCCLS M11-A4 protocol.
# Stock cultures of each organism were transferred onto Mueller-Hinton Agar (MHA) plates and incubated for 24±2 hours at 37±2° C. On the day of the test, the top of at least three to five well-isolated colonies were transferred via wire loop to a tube containing 4 to 5 ml of Trypticase Soy Broth (TSB). The TSB culture was incubated for 2 to 6 hours and turbidity was adjusted with sterile saline to achieve the turbidity of the 0.5 McFarland Standard.
# The concentrated 9-decenoic acid was diluted 1:40 in Mueller-Hinton Broth (MHB) to yield a 2.5% stock solution. The test solution of the methyl ester of 9-decenoic acid was formulated in the same manner. For each organism, 12 dilutions of the 9-decenoic acid and the methyl ester of 9-decenoic acid in MHB were prepared ranging from 0.2500 to 0.0005%. A 2-ml aliquot of appropriately diluted 9-decenoic acid or the methyl ester of 9-decenoic acid solution was placed in each tube. Each tube was inoculated with 0.05 ml of a 1:10 dilution of one challenge organism. Tubes were incubated at 37±2° C. for 20-24 hours and observed for growth or no growth. […] Controls were run for sterility, viability and organism confirmation. It was determined that all cultures were viable and pure.
# The MBC was defined as the concentration of 9-decenoic acid or the methyl ester of 9-decenoic acid that completely eradicated viable organisms from the test system.
# [2] = test system: Aspergillus flavus, ATCC 9170; test: Preservative effectiveness, USP <51>
# Procedure: (§1) The effectiveness of 9-decenoic acid on Aspergillus and Penecillium which occasionally result in in-can spoilage of paint was determined using the protocol on preservative effectiveness found in the United States Pharmacopeia (USP), 25th Edition, 2002, USP <51>.
# (§2) Stock cultures of the fungi Aspergillus flavus, ATCC 9170 and Penecillium verrucosum, ATCC 18381 were cultured onto Sabouraud Dextrose Agar (SDA) and incubated at 25-30° C. for at least 1 week. The spores were washed form the agar surface with sterile saline, filtered through sterile glass wool, enumerated and stored under refrigeration for no longer than thirty days. On the day of the test, the suspension was diluted to approximately 10^8 CFU/ml.
# (§3) The 9-decenoic acid was diluted in the same manner as previously described to achieve, 0.25, 0.125, 0.0625, 0.03, 0.015, 0.0078 and 0.0039% and dispensed in 20 ml aliquots in sterile test tubes. For each concentration tested, a 0.1 ml aliquot of each inoculum was added to a final concentration of 10^5 to 10^6 CFU/ml. The tubes were incubated at room temperature and sampled on days 0, 1, 2, 4, 7, 14, 21 and 28.
# (§4) At each sample point, 1.0 ml aliquots were withdrawn, serially diluted and plated in triplicate on SDA. The plates were incubated at 25-30° C. for 3-7 days. The colonies were counted and the average CFU/ml was calculated. Controls for purity, viability and sterility were performed as described previously.
# (§5) According to the US Pharmacopoeia, a test compound is an effective preservative if the concentrations of viable fungi remain at or below the initial concentrations during the first fourteen days and after 28 days. According to this definition, 9-decenoic acid is an effective preservative against Aspergillus flavus and Penecillium verrucosum at concentrations as low at 0.078%. […] For A. flavus, 9-decenoic acid was fungicidal at 0.015% after 21 days and at day 0 at 0.03%.
# [3] = test system: Penecillium verrucosum, ATCC 18381; test: Preservative effectiveness, USP <51>
# Procedure: as §1, §2, §3, §4, §5
smiles,measurement,setting,value
C=CCCCCCCCC(=O)O [9-decenoic acid],MBC,[1],0.1250%
same,Log reduction of organisms after exposure,"[2]; 0.0078%, exposure 0 days",0.2 log
same,Log reduction of organisms after exposure,"[2]; 0.0078%, exposure 1 day",0.3 log
same,Log reduction of organisms after exposure,"[2]; 0.0078%, exposure 2 days",0.2 log
same,Log reduction of organisms after exposure,"[2]; 0.0078%, exposure 4 days",0.4 log
same,Log reduction of organisms after exposure,"[2]; 0.0078%, exposure 7 days",0.4 log
same,Log reduction of organisms after exposure,"[2]; 0.0078%, exposure 14 days",0.4 log
same,Log reduction of organisms after exposure,"[2]; 0.0078%, exposure 21 days",0.8 log
same,Log reduction of organisms after exposure,"[2]; 0.0078%, exposure 28 days",0.8 log
same,Log reduction of organisms after exposure,"[2]; 0.015%, exposure 0 days",1.2 log
same,Log reduction of organisms after exposure,"[2]; 0.015%, exposure 1 day",2.9 log
same,Log reduction of organisms after exposure,"[2]; 0.015%, exposure 2 days",3.1 log
same,Log reduction of organisms after exposure,"[2]; 0.015%, exposure 4 days",3.9 log
same,Log reduction of organisms after exposure,"[2]; 0.015%, exposure 7 days",3.9 log
same,Log reduction of organisms after exposure,"[2]; 0.015%, exposure 14 days",4.8 log
same,Log reduction of organisms after exposure,"[2]; 0.015%, exposure 21 days",5.1 log
same,Log reduction of organisms after exposure,"[2]; 0.015%, exposure 28 days",4.8 log
same,Log reduction of organisms after exposure,"[2]; 0.03%, exposure 0 days",5.1 log
same,Log reduction of organisms after exposure,"[2]; 0.03%, exposure 1 day",5.1 log
same,Log reduction of organisms after exposure,"[2]; 0.03%, exposure 2 days",5.1 log
same,Log reduction of organisms after exposure,"[2]; 0.03%, exposure 4 days",5.1 log
same,Log reduction of organisms after exposure,"[2]; 0.03%, exposure 7 days",5.1 log
same,Log reduction of organisms after exposure,"[2]; 0.03%, exposure 14 days",5.1 log
same,Log reduction of organisms after exposure,"[2]; 0.03%, exposure 21 days",5.1 log
same,Log reduction of organisms after exposure,"[2]; 0.03%, exposure 28 days",5.1 log
same,Log reduction of organisms after exposure,"[2]; 0.0625%, exposure 0 days",5.1 log
same,Log reduction of organisms after exposure,"[2]; 0.0625%, exposure 1 day",5.1 log
same,Log reduction of organisms after exposure,"[2]; 0.0625%, exposure 2 days",5.1 log
same,Log reduction of organisms after exposure,"[2]; 0.0625%, exposure 4 days",5.1 log
same,Log reduction of organisms after exposure,"[2]; 0.0625%, exposure 7 days",5.1 log
same,Log reduction of organisms after exposure,"[2]; 0.0625%, exposure 14 days",5.1 log
same,Log reduction of organisms after exposure,"[2]; 0.0625%, exposure 21 days",5.1 log
same,Log reduction of organisms after exposure,"[2]; 0.0625%, exposure 28 days",5.1 log
same,time after which fungicidal,[2]; at 0.015%,21 days
same,time after which fungicidal,[2]; at 0.03%,0 days
same,time after which fungicidal,[3],2 days
same,Log reduction of organisms after exposure,"[3]; 0.0078%, exposure 0 days",0 log
same,Log reduction of organisms after exposure,"[3]; 0.0078%, exposure 1 day",0.1 log
same,Log reduction of organisms after exposure,"[3]; 0.0078%, exposure 2 days",0.8 log
same,Log reduction of organisms after exposure,"[3]; 0.0078%, exposure 4 days",0.8 log
same,Log reduction of organisms after exposure,"[3]; 0.0078%, exposure 7 days",0.8 log
same,Log reduction of organisms after exposure,"[3]; 0.0078%, exposure 14 days",0.8 log
same,Log reduction of organisms after exposure,"[3]; 0.0078%, exposure 21 days",1.8 log
same,Log reduction of organisms after exposure,"[3]; 0.0078%, exposure 28 days",1.9 log
same,Log reduction of organisms after exposure,"[3]; 0.015%, exposure 0 days",0.1 log
same,Log reduction of organisms after exposure,"[3]; 0.015%, exposure 1 day",3.0 log
same,Log reduction of organisms after exposure,"[3]; 0.015%, exposure 2 days",5.1 log
same,Log reduction of organisms after exposure,"[3]; 0.015%, exposure 4 days",5.1 log
same,Log reduction of organisms after exposure,"[3]; 0.015%, exposure 7 days",5.1 log
same,Log reduction of organisms after exposure,"[3]; 0.015%, exposure 14 days",5.1 log
same,Log reduction of organisms after exposure,"[3]; 0.015%, exposure 21 days",5.1 log
same,Log reduction of organisms after exposure,"[3]; 0.015%, exposure 28 days",5.1 log
same,Log reduction of organisms after exposure,"[3]; 0.03%, exposure 0 days",3.4 log
same,Log reduction of organisms after exposure,"[3]; 0.03%, exposure 1 day",5.1 log
same,Log reduction of organisms after exposure,"[3]; 0.03%, exposure 2 days",5.1 log
same,Log reduction of organisms after exposure,"[3]; 0.03%, exposure 4 days",5.1 log
same,Log reduction of organisms after exposure,"[3]; 0.03%, exposure 7 days",5.1 log
same,Log reduction of organisms after exposure,"[3]; 0.03%, exposure 14 days",5.1 log
same,Log reduction of organisms after exposure,"[3]; 0.03%, exposure 21 days",5.1 log
same,Log reduction of organisms after exposure,"[3]; 0.03%, exposure 28 days",5.1 log
same,Log reduction of organisms after exposure,"[3]; 0.0625%, exposure 0 days",4.3 log
same,Log reduction of organisms after exposure,"[3]; 0.0625%, exposure 1 day",5.1 log
same,Log reduction of organisms after exposure,"[3]; 0.0625%, exposure 2 days",5.1 log
same,Log reduction of organisms after exposure,"[3]; 0.0625%, exposure 4 days",5.1 log
same,Log reduction of organisms after exposure,"[3]; 0.0625%, exposure 7 days",5.1 log
same,Log reduction of organisms after exposure,"[3]; 0.0625%, exposure 14 days",5.1 log
same,Log reduction of organisms after exposure,"[3]; 0.0625%, exposure 21 days",5.1 log
same,Log reduction of organisms after exposure,"[3]; 0.0625%, exposure 28 days",5.1 log
same,time after which fungicidal,[3]; at 0.03%,1 days
